Data on two molecules can be found in paper PMC9658586, “1,4-Naphthoquinone Motif in the Synthesis of New Thiopyrano[2,3-d]thiazoles as Potential Biologically Active Compounds” (Molecules, 2022).

Like-named read-outs stand apart in the source and are kept apart here.

In data set [1] the test system is isolated normal human peripheral blood lymphocytes. Nature of the data set: MTT cell viability assay, isolated lymphocytes. It is filed as cell-based. Conditions: MTT, 72 h, normal human peripheral blood lymphocytes, read-out: IC50, Isolated lymphocytes. The method, then: We continued the cytotoxicity study of synthesized derivatives 3.1–3.6 toward tumor and pseudo-normal cells in vitro. The MTT cell viability assay was performed 72 h after cells treatment with various concentrations of studied compounds and doxorubicin, a reference drug. […] The THP-1 cells, monocytes isolated from peripheral blood from an acute monocytic leukemia patient, were also sensitive to the 3.6 treatment. […] The 3.6 inhibited the viability of epidermoid carcinoma (KB3-1 and its ABCB1-overexpressing subline KBC-1) and colon carcinoma (HCT116wt and its p53 knockdown subline HCT116 p53-/-) cells. It is known that ABCB1 (P-glycoprotein), MRP1/ABCC1 (multidrug resistance protein 1), and BCRP/BCG2 (breast cancer resistance protein) have been reported to be key players in resistance to chemotherapy. […] Thus, the p53 status of colon carcinoma cells influenced the anti-tumor effects of the studied 3,5,10,11-tetrahydro-2H-benzo[6,7]thiochromeno[2,3-d][1, 3]thiazole-2,5,10-trione. The p53 has diverse mutations in almost all human tumors, stimulating their hyper-proliferation, invasion/metastasis, and thus, influencing the potency of various chemotherapeutics (i.e., platins and anti-metabolites). […] Based on our findings, one can assume a p53-dependent mode of action for 3.6 toward colon cancer cells.
(§1) MTT assay was used to examine the viability of tumor and pseudo-normal cells after their treatment with studied thiopyrano[2,3-d]thiazole derivatives and doxorubicin (Actavis S.R.L., Bucharest, Romania). Cells were seeded in 96-well plates at a density of 3–5 × 103. After 24 h, cells were treated with compound […], 1,4-NQ (0.1–100 µM), and doxorubicin (0.1–100 µM). After incubation for 72 h, MTT reagent (Sigma-Aldrich, St. Louis, MO, USA) was added to each well, according to the Sigma-Aldrich protocol. An absorbance Reader BioTek ELx800 (BioTek Instruments, Inc., Winooski, VT, USA) was used to measure the reaction product.
The study protocol with human lymphocytes isolated from healthy adult peripheral blood was approved by BioEthics Committee of the Institute of Cell Biology of National Academy of Sciences of Ukraine (protocol No 2 from 27 January 2019), and with written consent of donor.

The subject of data set [2] is human keratinocytes of HaCaT line. Nature of the data set: MTT cell viability assay, HaCaT. In kind it is cell-based. Conditions: 72 h, pseudo-normal cells. As for the experimental part: (§2) The MTT cell viability assay was performed 72 h after cells treatment with various concentrations of studied compounds and doxorubicin, a reference drug. […] It is known that ABCB1 (P-glycoprotein), MRP1/ABCC1 (multidrug resistance protein 1), and BCRP/BCG2 (breast cancer resistance protein) have been reported to be key players in resistance to chemotherapy. […] The p53 has diverse mutations in almost all human tumors, stimulating their hyper-proliferation, invasion/metastasis, and thus, influencing the potency of various chemotherapeutics (i.e., platins and anti-metabolites).
(§3) Human colon carcinoma HCT116 cells, human breast adenocarcinoma cells of MCF-7 line, human T-leukemia Jurkat cells, human chronic myelogenous leukemia K562 cells, and human keratinocytes of HaCaT line were from the Cell Collection of R.E. Kavetsky Institute of Experimental Pathology, Oncology and Radiobiology (Kyiv, Ukraine). Murine macrophages of J774.2 line were a generous gift from Professor Sir John Vane (William Harvey Research Institute, London, UK) via Professor Janusz Marcinkiewicz (Jagiellonian University Medical College, Krakow, Poland). Human colon carcinoma HCT116 p53-/- cells with knockdown of P53 gene, as well as human epidermoid cervix carcinoma KB3-1 cells and its ABCB1-overexpressing subline KBC-1, were kindly provided by Professor W. Berger (Institute of Cancer Research, Medical University of Vienna, Austria). […] Human leukemia monocytic THP-1 cells were kindly provided by Professor M. Herrmann (Department of Internal Medicine, Institute for Clinical Immunology and Rheumatology, University of Erlangen-Nuremberg, Germany). […]
(§4) MTT assay was used to examine the viability of tumor and pseudo-normal cells after their treatment with studied thiopyrano[2,3-d]thiazole derivatives and doxorubicin (Actavis S.R.L., Bucharest, Romania). […] An absorbance Reader BioTek ELx800 (BioTek Instruments, Inc., Winooski, VT, USA) was used to measure the reaction product.

Another data set has as its system salmon sperm DNA. Nature of the data set: DNA/methyl green colorimetric (replacement) assay. In kind it is binding. As for the experimental part:
In addition, we used DNA/methyl green colorimetric assay to study the possible interaction of compound 3.6 in DNA. […] This assay was used to measure the displacement of methyl green from DNA by compounds with the ability to intercalate DNA [54].
The capacity of the tested compounds to intercalate into salmon sperm DNA was determined using the methyl green assay. Briefly, salmon sperm DNA (10 mg/mL) was incubated for 1 h at 37 °C with 15 µL of methyl green solution (1 mg/mL in H2O). The compounds were added at concentrations 1 and 10 µM/mL and incubated at 37 °C in the dark for 2 h. Reduction of the absorbance of methyl green at 642 nm induced by the test compounds was measured with a multiplate reader, Plate Reader BioTek Lx80 ( BioTek Instruments, Inc., Winooski, VT, USA). Doxorubicin, a well-known intercalating agent, was used as a positive control.

The test system of data set [3] is human breast adenocarcinoma cells of MCF-7 line. Description: MTT cell viability assay, MCF-7. It is filed as cell-based. The following applies: Homo sapiens, MCF7, 72 h. The method, then:
as §2
(§5) Human colon carcinoma HCT116 cells, human breast adenocarcinoma cells of MCF-7 line, human T-leukemia Jurkat cells, human chronic myelogenous leukemia K562 cells, and human keratinocytes of HaCaT line were from the Cell Collection of R.E. Kavetsky Institute of Experimental Pathology, Oncology and Radiobiology (Kyiv, Ukraine). Murine macrophages of J774.2 line were a generous gift from Professor Sir John Vane (William Harvey Research Institute, London, UK) via Professor Janusz Marcinkiewicz (Jagiellonian University Medical College, Krakow, Poland). Human colon carcinoma HCT116 p53-/- cells with knockdown of P53 gene, as well as human epidermoid cervix carcinoma KB3-1 cells and its ABCB1-overexpressing subline KBC-1, were kindly provided by Professor W. Berger (Institute of Cancer Research, Medical University of Vienna, Austria). […] Human leukemia monocytic THP-1 cells were kindly provided by Professor M. Herrmann (Department of Internal Medicine, Institute for Clinical Immunology and Rheumatology, University of Erlangen-Nuremberg, Germany). Cells were cultured in DMEM or RPMI-1640 medium supplemented with 10% fetal bovine serum (all were purchased from Biowest, Nuaille, France) at 37 °C in a humidified atmosphere containing 5% CO2.
as §1
(In general: Tetrazolium assays rely on reduction of a dye to a coloured formazan, in cell work by metabolically active cells.)

The subject of the next data set is MDA-MB-435/Melanoma. Description: NCI single-dose screen, MDA-MB-435. Conditions: 10 μM, 48 h. It is filed as cell-based, human. As for the experimental part: Considering the results of previous studies of fused thiazolidinones and their analogs, a series of thiopyrano[2,3-d]thiazoles with naphthoquinone fragments in the structure were studied for their anticancer activity. Thus, synthesized thiopyranothiazole derivatives 3.5 and 3.6 were selected by the National Cancer Institute (NCI), U.S., for their anticancer activity at 10 μM concentration toward a panel of sixty cancer cell lines representing nine different types (leukemia, melanoma, lung, colon, CNS, ovarian, renal, prostate, and breast cancers) (Figures S13–S14). Selection for screening based on new derivatives’ ability to add diversity to the NCI small molecules collection and anticancer assays were performed according to the NCI guidelines and protocols previously described. The compounds were added at the mentioned concentration, and the cell cultures were incubated for 48 h. The results for each compound were reported as the growth percent (GP%) of treated cells compared with untreated control cells.
Anticancer in vitro assay was performed on the human tumor cell lines panel derived from nine neoplastic diseases by the protocol of the Drug Evaluation Branch, National Cancer Institute, Bethesda, MD, USA [44, 45, 46]. […] GP% was spectrophotometrically evaluated vs. controls not treated with test agents.

Data set [4] has as its system Human colon carcinoma HCT116 p53-/- cells. Description: MTT cell viability assay, HCT116 p53-/-. It is filed as cell-based. The following applies: for IC50: Homo sapiens, read-out: IC50, HCT116 p53-/-. The method, then: as §2, §5, §1
The test system of data set [5] is KBC-1 (ABCB1-overexpressing subline of KB3-1). Nature of the data set: MTT cell viability assay, KBC-1. It is filed as cell-based. Conditions: Homo sapiens, 72 h. As for the experimental part: as §2, §3, §4

Regarding `O=C1C2=C(C(=O)c3ccccc31)C(CCc1ccccc1)c1sc(=O)[nH]c1S2` (centres unmarked) [Compound 3.6, 11-Phenethyl-3,11-dihydro-2H-benzo[6,7]thiochromeno[2,3-d]thiazole-2,5,10-trione], the IC50 in data set [1] (Lymphocyte) is 58.7 µM; in data set [2] (Homo sapiens, HaCaT), > 100 µM; in data set [3], 8.94 µM; in data set [4] (HCT-116, MTT, 72 h) it was 12.3 µM; in data set [5], 12.8 µM. The “percentage of methyl green replacement” value in the data set on salmon sperm DNA (dependent on concentration (1 and 10 µM)) is recorded as 35.00 to 39.64%. In addition, in the data set with MDA-MB-435/Melanoma, the “Most Sensitive Cell Line Growth, % (MDA-MB-435/Melanoma)” value was 52.87%. For the same molecule, the “cytotoxic action on p53-deficient colon carcinoma cells relative to HCT116wt” value in data set [4] (HCT116 p53-/- vs HCT116wt) is listed as “two times weaker”.
Take `COc1cccc2c1C(=O)c1c(O)c3c(c(O)c1C2=O)C[C@@](O)(C(=O)CO)C[C@@H]3O[C@H]1C[C@H](N)[C@H](O)[C@H](C)O1` [Doxorubicin, doxorubicin, reference compound]: the IC50 in data set [1] (Homo sapiens, Lymphocyte) was 0.8 to 1 µM; in data set [1] (listed as Dox), 1 µM; in data set [2] (listed as Dox), 0.8 µM; in data set [2] (Homo sapiens, HaCaT), 0.8 to 1 µM; in data set [3], 0.63 µM; in data set [4] (HCT-116, 72 h), 0.58 µM. This molecule showed an IC50 in data set [5] of 1.97 µM. For the same molecule, the methyl green replacement entry in the data set with salmon sperm DNA (10 µM, compared with compound 3.6) is “two times more effective”. Moreover, in the data set with MDA-MB-435/Melanoma, the “Most Sensitive Cell Line Growth, % (MDA-MB-435/Melanoma)” value is given as −82.60%.
